Experimental data as given in US20260207788A1, “HEAVY ISOTOPE 3-BP MOLECULES, COMPOSITIONS, AND TREATMENTS” (KODISCOVERY, LLC, priority 2022, published 2026).
Read-outs that look alike come from different tables or passages of the source.

What was measured:
Type in all cases: cell-based
Panc-2 cells [1] = assay: MTS assay, percent viability of Panc-2 cells; details: for viability at 40 µM / viability at 80 µM / viability at 100 µM: read-out: percent viability of Panc-2 cells; for cell death: time not given
Procedure: (§1) In current study we have tested anti-tumor potency of 7, 3-BP analogues employing MTS and ATP assay. The percent viability of Pan-2 cells was determined in presence of graded concentration of 3BP analogues 0, 1, 2, 3, 4, 5, 6 & 7.
Panc2 cells were seeded in either 6 well plate (6-6.5×10^4 cells/well/2 ml media) or in 12 well plate (3-3.5×10^4/1 ml media) or in 96 well plate ([…] /well/100 ul) in RPMI 1640 with 10% FBS, 0.5% antibiotic media for about 12 hours, in CO2 cell culture incubator at 37 °C. The cells were treated initially with KAT 0, 5, 20, 40, 80 and 100 uM for 1, 2, 4, 8 hours and latter in separate experiments with 40 and 60 µM for 15, 30, 1 hour. For each treatment KAT was added in a volume maximum 10 ul. For control same amount of KAT buffer was used. At the end of each time point treatment MTS reagent (Cell titer 96 aqueous one solution, Promega, USA) was added to each well according to the manufacturer instruction and incubated for approx. 2 hours. After that 100 ul from each well was transferred to 96 well plate (quartiles for each treatment) and measured absorbance at 490 nm with BIOTEK synergy HT. For 96 well plate reagent was added directly to each well, incubated for 2 hours and measured absorbance at 490 nm.

Panc-2 cells [2] = assay: ATP assay (cell titer Glo2.0), ATP generation in panc-2 cells; details: 40 μM; for cells killed in terms of ATP generation: time not given
Procedure: as §1
For ATP assay panc2 cells (2×10^3/in 100 ul media) were seeded in each well of 96 well luminescence plate (Corning, USA) for 12 hours in media described above. Cells were treated with KAT 0, 5, 20, 40, 80, 100 for 1, 2, 4, 8 hours. In separate experiments, cells were treated with KAT 40, 60 μM for 15, 30 & 60 min. At the end of each treatment, 100 ul ATP assay reagent cell titer Glo2.0 (Promega, USA) was added in each well, shacked on a rotating shaker for 2 mins, incubated at room temperature for 10 mins in dark and luminescence was measured with BIOTEK synergy HT.

Panc-2 cells [3] = assay: Imaging of morphology of treated panc-2 cells
Panc-2 cells [4] = assay: MTS assay, percent viability of Panc-2 cells; details: 40 μM; for cell death (cells killed) in terms of MTT: after 8 hours; for cells killed in terms of MTT: time not given

Structure (SMILES) | cells killed (Panc-2 cells [1]; 80 μM, 1 hour treatment) | ATP generation (Panc-2 cells [2]; 1 hour treatment) | ATP generation (Panc-2 cells [2]; after 8 hours) | viability at 40 µM (Panc-2 cells [1]; 1 h) | viability at 40 µM (Panc-2 cells [1]; 8 h) | cell death (cells killed) in terms of ATP generation (Panc-2 cells [2]; after 8 hours) | cell morphology (Panc-2 cells [3]; 40 μM, after 8 hours) | cell death (cells killed) in terms of MTT (Panc-2 cells [4]) | cells killed in terms of ATP generation (Panc-2 cells [2]) | cells killed in terms of MTT (Panc-2 cells [4]) | further results
O=C(O)C(=O)CBr [Molecule 0, 3-Bromopyruvate, reference compound] | about 97% | 80% | 35% |  |  |  |  |  |  |  | cell death in Panc-2 cells (Panc-2 cells [1]; 40 μM, 1 hour treatment): 58%; percent viability of Panc-2 cells (Panc-2 cells [1]; 40 μM, 8 hours treatment): 24%; cell death (cells killed) (Panc-2 cells [1]; 80 μM, 8 hours treatment): 100%; cell morphology (Panc-2 cells [3]; 40, 80 and 100 μM): change in morphology
O=[13C](O)[13C](=O)[13CH2]Br [Molecule 6] |  | 73% | 26% | ~66% | ~57% | about 74% | rounding and membrane blabbing | about 43% |  |  | viability at 80 µM (Panc-2 cells [1]; 1 h): ~32%; viability at 100 µM (Panc-2 cells [1]; 1 h): ~28%
O=C(O)C(=O)CBr [Molecule 7, 3-Bromopyruvate, reference compound] |  | 79% | 64% |  |  | about 74% | rounding and membrane blabbing | about 43% |  |  | percent viability of Panc-2 cells (Panc-2 cells [1]; 40 μM, 1 hour treatment): about 67%; percent viability of Panc-2 cells (Panc-2 cells [1]; 40 μM, 8 hours treatment): about 46%; percent viability of Panc-2 cells (Panc-2 cells [1]; 80 μM, 1 hour treatment): about 10%; percent viability of Panc-2 cells (Panc-2 cells [1]; 100 μM, 1 hour treatment): about 4%
O=C(CBr)[13C](=O)O [Molecule 1] | 79% | 57% | 7% | 54% | 30% | 93% | rounding and membrane blabbing | 70% |  |  | cell death (cells killed) (Panc-2 cells [1]; 80 μM, 8 hours treatment): 96%; cell death (Panc-2 cells [1]; 80 and 100 uM): 95-97%
[2H]C([2H])(Br)C(=O)C(=O)O [Molecule 4] | about 99% | 91% | about 76% | ~58% | ~60% |  |  |  | 32-40% | 32-40% | cell death (Panc-2 cells [1]; 100 μM): about 100%; cell morphology (Panc-2 cells [3]; 80 μM, after 2 hours): rounding and membrane blabbing
OC(=[18O])C(=[18O])CBr [Molecule 5] |  | about 69% | about 26% | ~48% | ~19% |  | rounding and membrane blabbing |  | about 74% | about 81% | viability at 80 µM (Panc-2 cells [1]; 1 h): ~6%; viability at 100 µM (Panc-2 cells [1]): ~2%
O=C(O)[13C](=O)CBr [Molecule 2] |  | 83% | 68% | ~52% | ~60% |  |  |  | 32% | 40% | cells killed (Panc-2 cells [1]; 80 μM, 4 hour treatment): about 99%; viability at 100 µM (Panc-2 cells [1]): ~0%; cell morphology (Panc-2 cells [3]; 80 μM, time not given): rounding and membrane blabbing
O=C(O)C(=O)[13CH2]Br [Molecule 3] | ~88% | about 80% | about 66% | ~62% | ~46% |  | rounding and membrane blabbing |  | about 34% | about 54% | viability at 100 µM (Panc-2 cells [1]; 1 h): ~5%
